In the NIST ThermoML archive (doi:10.1021/je900596d):

Conditions: for mass density: Vibrating tube method

FC(F)=C(F)C(F)(F)F [hexafluoropropene]
Conditions | mass density [kg/m3] | vapor or sublimation pressure [kPa]
343.18 K, 7163.7 kPa, Liquid | 1166.5 | –
343.18 K, 7207.1 kPa, Liquid | 1167.25 | –
343.18 K, 7249.5 kPa, Liquid | 1168.08 | –
343.18 K, 7293.3 kPa, Liquid | 1168.78 | –
343.18 K, 7354.7 kPa, Liquid | 1169.81 | –
343.18 K, 7477.5 kPa, Liquid | 1171.63 | –
343.18 K, 7539.3 kPa, Liquid | 1172.69 | –
343.18 K, 7580 kPa, Liquid | 1173.37 | –
343.18 K, 7621.6 kPa, Liquid | 1174.18 | –
343.18 K, 7663.4 kPa, Liquid | 1174.54 | –
343.18 K, 7709.7 kPa, Liquid | 1175.39 | –
343.18 K, 7753.6 kPa, Liquid | 1176.17 | –
343.18 K, 7797.5 kPa, Liquid | 1176.76 | –
343.18 K, 7837.6 kPa, Liquid | 1177.31 | –
343.18 K, 7898.4 kPa, Liquid | 1178.24 | –
343.18 K, 7941.1 kPa, Liquid | 1178.97 | –
343.18 K, 7984.5 kPa, Liquid | 1179.58 | –
343.18 K, 8043.1 kPa, Liquid | 1180.22 | –
343.18 K, 8085.6 kPa, Liquid | 1180.85 | –
343.18 K, 8131.1 kPa, Liquid | 1181.65 | –
343.18 K, 8209.9 kPa, Liquid | 1183.02 | –
343.18 K, 8291.5 kPa, Liquid | 1184.04 | –
343.18 K, 8335.5 kPa, Liquid | 1184.74 | –
343.18 K, 8378 kPa, Liquid | 1185.42 | –
343.18 K, 8419.6 kPa, Liquid | 1185.91 | –
343.18 K, 8464.8 kPa, Liquid | 1186.51 | –
343.18 K, 8525.6 kPa, Liquid | 1187.33 | –
343.18 K, 8587 kPa, Liquid | 1188.25 | –
343.18 K, 8628.5 kPa, Liquid | 1188.86 | –
343.18 K, 8670.7 kPa, Liquid | 1189.47 | –
343.18 K, 8714.6 kPa, Liquid | 1189.91 | –
343.18 K, 8776.2 kPa, Liquid | 1190.93 | –
343.18 K, 8818.3 kPa, Liquid | 1191.58 | –
343.18 K, 8881.2 kPa, Liquid | 1192.4 | –
343.18 K, 8941.7 kPa, Liquid | 1193.53 | –
343.18 K, 9000.5 kPa, Liquid | 1194.02 | –
343.18 K, 9064 kPa, Liquid | 1194.66 | –
343.18 K, 9123.4 kPa, Liquid | 1195.43 | –
343.18 K, 9184.1 kPa, Liquid | 1196.23 | –
343.18 K, 9262 kPa, Liquid | 1197.29 | –
343.18 K, 9304.6 kPa, Liquid | 1197.74 | –
343.18 K, 9350.1 kPa, Liquid | 1198.56 | –
343.18 K, 9408.2 kPa, Liquid | 1199.15 | –
343.18 K, 9449.8 kPa, Liquid | 1199.74 | –
343.18 K, 9509.5 kPa, Liquid | 1200.56 | –
343.18 K, 9567.5 kPa, Liquid | 1201.28 | –
343.18 K, 9607.9 kPa, Liquid | 1202.1 | –
343.18 K, 9667.5 kPa, Liquid | 1202.79 | –
343.18 K, 9708 kPa, Liquid | 1203.31 | –
343.18 K, 9749.9 kPa, Liquid | 1203.76 | –
343.18 K, 9796.9 kPa, Liquid | 1204.53 | –
343.18 K, 9839 kPa, Liquid | 1205.06 | –
343.18 K, 9920.9 kPa, Liquid | 1205.9 | –
343.18 K, 9962.6 kPa, Liquid | 1206.45 | –
343.21 K, Liquid, Closed cell (Static) method | – | 2243.8
343.26 K, 3.2 kPa, Fluid (supercritical or subcritical phases) | 0.22 | –
343.26 K, 5.9 kPa, Fluid (supercritical or subcritical phases) | 0.35 | –
343.26 K, 8.6 kPa, Fluid (supercritical or subcritical phases) | 0.55 | –
343.26 K, 10.3 kPa, Fluid (supercritical or subcritical phases) | 0.63 | –
343.26 K, 12.1 kPa, Fluid (supercritical or subcritical phases) | 0.73 | –
343.26 K, 14.8 kPa, Fluid (supercritical or subcritical phases) | 0.81 | –
343.26 K, 16.4 kPa, Fluid (supercritical or subcritical phases) | 1 | –
343.26 K, 19.5 kPa, Fluid (supercritical or subcritical phases) | 1.07 | –
343.26 K, 22.4 kPa, Fluid (supercritical or subcritical phases) | 1.29 | –
343.26 K, 24.3 kPa, Fluid (supercritical or subcritical phases) | 1.34 | –
343.26 K, 25.9 kPa, Fluid (supercritical or subcritical phases) | 1.39 | –
343.26 K, 29 kPa, Fluid (supercritical or subcritical phases) | 1.68 | –
343.26 K, 32 kPa, Fluid (supercritical or subcritical phases) | 1.75 | –
343.26 K, 33.6 kPa, Fluid (supercritical or subcritical phases) | 1.83 | –
343.26 K, 36.6 kPa, Fluid (supercritical or subcritical phases) | 1.97 | –
343.26 K, 38.2 kPa, Fluid (supercritical or subcritical phases) | 2.07 | –
343.26 K, 39.9 kPa, Fluid (supercritical or subcritical phases) | 2.11 | –
343.26 K, 43.2 kPa, Fluid (supercritical or subcritical phases) | 2.31 | –
343.26 K, 45.9 kPa, Fluid (supercritical or subcritical phases) | 2.54 | –
343.26 K, 50.6 kPa, Fluid (supercritical or subcritical phases) | 2.72 | –
343.26 K, 55.4 kPa, Fluid (supercritical or subcritical phases) | 3 | –
343.26 K, 59.9 kPa, Fluid (supercritical or subcritical phases) | 3.25 | –
343.26 K, 63.1 kPa, Fluid (supercritical or subcritical phases) | 3.46 | –
343.26 K, 66.1 kPa, Fluid (supercritical or subcritical phases) | 3.7 | –
343.26 K, 70.8 kPa, Fluid (supercritical or subcritical phases) | 3.87 | –
343.26 K, 72.4 kPa, Fluid (supercritical or subcritical phases) | 3.95 | –
343.26 K, 74.2 kPa, Fluid (supercritical or subcritical phases) | 4.04 | –
343.26 K, 77.2 kPa, Fluid (supercritical or subcritical phases) | 4.21 | –
343.26 K, 80.1 kPa, Fluid (supercritical or subcritical phases) | 4.42 | –
343.26 K, 81.8 kPa, Fluid (supercritical or subcritical phases) | 4.49 | –
343.26 K, 83.4 kPa, Fluid (supercritical or subcritical phases) | 4.54 | –
343.26 K, 86.6 kPa, Fluid (supercritical or subcritical phases) | 4.74 | –
343.26 K, 89.9 kPa, Fluid (supercritical or subcritical phases) | 4.91 | –
343.26 K, 94.8 kPa, Fluid (supercritical or subcritical phases) | 5.2 | –
343.26 K, 97.7 kPa, Fluid (supercritical or subcritical phases) | 5.42 | –
343.26 K, 104 kPa, Fluid (supercritical or subcritical phases) | 5.73 | –
343.26 K, 110.1 kPa, Fluid (supercritical or subcritical phases) | 6.1 | –
343.26 K, 116.3 kPa, Fluid (supercritical or subcritical phases) | 6.4 | –
343.26 K, 122.7 kPa, Fluid (supercritical or subcritical phases) | 6.8 | –
343.26 K, 129.3 kPa, Fluid (supercritical or subcritical phases) | 7.14 | –
343.26 K, 135.5 kPa, Fluid (supercritical or subcritical phases) | 7.51 | –
343.26 K, 141.7 kPa, Fluid (supercritical or subcritical phases) | 7.92 | –
343.26 K, 148.2 kPa, Fluid (supercritical or subcritical phases) | 8.27 | –
343.26 K, 154.4 kPa, Fluid (supercritical or subcritical phases) | 8.6 | –
343.26 K, 160.9 kPa, Fluid (supercritical or subcritical phases) | 8.89 | –
343.26 K, 170.1 kPa, Fluid (supercritical or subcritical phases) | 9.39 | –
343.26 K, 176.8 kPa, Fluid (supercritical or subcritical phases) | 9.8 | –
343.26 K, 183.2 kPa, Fluid (supercritical or subcritical phases) | 10.15 | –
343.26 K, 189.6 kPa, Fluid (supercritical or subcritical phases) | 10.49 | –
343.26 K, 200.5 kPa, Fluid (supercritical or subcritical phases) | 11.16 | –
343.26 K, 213.3 kPa, Fluid (supercritical or subcritical phases) | 11.94 | –
343.26 K, 225.8 kPa, Fluid (supercritical or subcritical phases) | 12.7 | –
343.26 K, 237.9 kPa, Fluid (supercritical or subcritical phases) | 13.34 | –
343.26 K, 250.5 kPa, Fluid (supercritical or subcritical phases) | 14.05 | –
343.26 K, 262.7 kPa, Fluid (supercritical or subcritical phases) | 14.74 | –
343.26 K, 274 kPa, Fluid (supercritical or subcritical phases) | 15.32 | –
343.26 K, 286 kPa, Fluid (supercritical or subcritical phases) | 16.09 | –
343.26 K, 298.3 kPa, Fluid (supercritical or subcritical phases) | 16.8 | –
343.26 K, 311.2 kPa, Fluid (supercritical or subcritical phases) | 17.55 | –
343.26 K, 323.1 kPa, Fluid (supercritical or subcritical phases) | 18.22 | –
343.26 K, 335.5 kPa, Fluid (supercritical or subcritical phases) | 18.98 | –
343.26 K, 347.7 kPa, Fluid (supercritical or subcritical phases) | 19.66 | –
343.26 K, 360 kPa, Fluid (supercritical or subcritical phases) | 20.46 | –
343.26 K, 372.1 kPa, Fluid (supercritical or subcritical phases) | 21.09 | –
343.26 K, 384.1 kPa, Fluid (supercritical or subcritical phases) | 21.84 | –
343.26 K, 396.5 kPa, Fluid (supercritical or subcritical phases) | 22.56 | –
343.26 K, 408.2 kPa, Fluid (supercritical or subcritical phases) | 23.28 | –
343.26 K, 420.5 kPa, Fluid (supercritical or subcritical phases) | 24.04 | –
343.26 K, 431.3 kPa, Fluid (supercritical or subcritical phases) | 24.66 | –
343.26 K, 443.3 kPa, Fluid (supercritical or subcritical phases) | 25.35 | –
343.26 K, 455.1 kPa, Fluid (supercritical or subcritical phases) | 26 | –
343.26 K, 466.9 kPa, Fluid (supercritical or subcritical phases) | 26.77 | –
343.26 K, 478.8 kPa, Fluid (supercritical or subcritical phases) | 27.49 | –
343.26 K, 490.9 kPa, Fluid (supercritical or subcritical phases) | 28.19 | –
343.26 K, 507.3 kPa, Fluid (supercritical or subcritical phases) | 29.18 | –
343.26 K, 521.6 kPa, Fluid (supercritical or subcritical phases) | 30.11 | –
343.26 K, 535.5 kPa, Fluid (supercritical or subcritical phases) | 30.9 | –
343.26 K, 548.6 kPa, Fluid (supercritical or subcritical phases) | 31.65 | –
343.26 K, 561.3 kPa, Fluid (supercritical or subcritical phases) | 32.53 | –
